Legend:
[1] = Lipid nanoparticle size by dynamic laser light scattering before and after overnight dialysis; format: physicochemical; settings: intensity weighted diameter, LNP with AD-1661; for LNPs Size (nm) change: size after dialysis: after overnight dialysis; for LNPs Size (nm) change: size before dialysis: before overnight dialysis
Protocol: The size of the lipid nanoparticles was measured before and after undergoing dialysis overnight. In general, greater changes in lipid nanoparticle size are indicative of lesser stability.
Dynamic laser light scattering was used to determine the lipid nanoparticle size (expressed as the intensity weighted diameter) with a Zetasizer (Malvern Instruments, Inc. of Westborough, Mass.). All measurements were made at 532 nm wavelength at the scattering angle of 173° using normal resolution mode as the analysis model.

[2] = HPLC retention time of cationic lipid in lipid nanoparticles relative to cholesterol; format: physicochemical; settings: HPLC retention time of lipid in LNP (AD-1661 payload) relative to cholesterol; in min (unit assumed)
Protocol: Furthermore, the HPLC retention time for each biodegradable cationic lipid was measured in lipid nanoparticles prepared from them. The lipid nanoparticles were prepared as described in Example 35 using AD-1661 as the payload. The retention times are reported in the table below relative to the retention time for cholesterol.
The HPLC buffer used was a mixture of two solutions (Solution #1 and Solution #2). • Solution #1: 80% methanol/20% 10 mM NH4HCO3 • Solution #2: 80% methanol/20% isopropanol

## CCCCCC/C=C\COC(=O)C(C)CCCCCCC(CCCCCCC(C)C(=O)OC/C=C\CCCCCC)OC(=O)CCCN(C)C (stereo not drawn)
[1]
  LNPs Size (nm) change: size after dialysis: 77 nm
  LNPs Size (nm) change: size before dialysis: 73 nm
[2]
  t(lipid) − t(chol): 0.848

## CCCCCCCC/C=C\COC(=O)CCCCCCCC(CCCCCCCC(=O)OC/C=C\CCCCCCCC)OC(=O)CCCN(C)C
[1]
  LNPs Size (nm) change: size after dialysis: 67 nm
  LNPs Size (nm) change: size before dialysis: 60 nm
[2]
  t(lipid) − t(chol): 1.44

## CCCCCC(CCCCC)CCOC(=O)CCCCCCCCCC(CCCCCCCCCC(=O)OCCC(CCCCC)CCCCC)OC(=O)CCCN(C)C
[2]
  t(lipid) − t(chol): 3.178

## CCCCCCCCCC/C=C\COC(=O)CCCCCCCC(CCCCCCCC(=O)OC/C=C\CCCCCCCCCC)OC(=O)CCCN(C)C
[1]
  LNPs Size (nm) change: size after dialysis: 67 nm
  LNPs Size (nm) change: size before dialysis: 68 nm
[2]
  t(lipid) − t(chol): 2.219

## CC(C)CCC(CCOC(=O)CCCCCCCCCC(CCCCCCCCCC(=O)OCCC(CCC(C)C)C(C)C)OC(=O)CCCN(C)C)C(C)C (stereo not drawn)
[2]
  t(lipid) − t(chol): 2.106

## CC(C)CCC(COC(=O)CCCCCCCCCC(CCCCCCCCCC(=O)OCC(CCC(C)C)C(C)C)OC(=O)CCCN(C)C)C(C)C (stereo not drawn)
[1]
  LNPs Size (nm) change: size after dialysis: 60 nm
  LNPs Size (nm) change: size before dialysis: 59 nm
[2]
  t(lipid) − t(chol): 1.751

## CCCCCC(CCCCC)CCOC(=O)CCCCCCCC(CCCCCCCC(=O)OCCC(CCCCC)CCCCC)OC(=O)CCCN(C)C
[1]
  LNPs Size (nm) change: size after dialysis: 56 -> 56 nm
  LNPs Size (nm) change: size before dialysis: 56 -> 56 nm
[2]
  t(lipid) − t(chol): 2.365

## CN(C)CCCC(=O)OC(CCCCCCCC/C=C\CCCCCCCC(=O)OCC(C)(C)C)CCCCCCCC/C=C\CCCCCCCC(=O)OCC(C)(C)C
[2]
  t(lipid) − t(chol): 2.707
